One assay concerns the target T1, C1s (Homo sapiens, UniProt P09871).
T1 sequence (P09871 438-688 limits assumed): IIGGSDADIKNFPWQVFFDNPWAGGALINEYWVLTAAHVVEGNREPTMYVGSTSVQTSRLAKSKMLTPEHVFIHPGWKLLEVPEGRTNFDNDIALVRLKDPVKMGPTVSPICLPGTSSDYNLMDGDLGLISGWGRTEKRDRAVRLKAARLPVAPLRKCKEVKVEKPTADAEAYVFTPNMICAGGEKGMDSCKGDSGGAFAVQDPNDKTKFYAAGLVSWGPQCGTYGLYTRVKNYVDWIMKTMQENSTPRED
T1 sequence (P09871 16-437 limits assumed): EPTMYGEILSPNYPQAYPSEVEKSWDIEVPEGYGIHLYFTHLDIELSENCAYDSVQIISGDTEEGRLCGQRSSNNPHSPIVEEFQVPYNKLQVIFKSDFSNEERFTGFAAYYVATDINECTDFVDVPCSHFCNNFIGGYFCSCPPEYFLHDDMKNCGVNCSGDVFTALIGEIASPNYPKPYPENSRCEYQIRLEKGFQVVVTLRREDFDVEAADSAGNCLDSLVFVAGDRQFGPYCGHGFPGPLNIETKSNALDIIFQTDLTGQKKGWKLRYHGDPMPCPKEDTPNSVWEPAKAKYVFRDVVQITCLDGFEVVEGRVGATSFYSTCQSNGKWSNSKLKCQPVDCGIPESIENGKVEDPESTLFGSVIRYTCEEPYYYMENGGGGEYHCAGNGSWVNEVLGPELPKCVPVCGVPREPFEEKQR
Description: anti-C1 esterase (C1s) activity (hydrolysis of ATEE). To be noted: for IC50: ATEE hydrolysis, read-out: ID50 C1s; for inhibition at 10 µM: at 1×10^-5 M, figure in parentheses, read-out: percent inhibition C1s. The format is biochemical. The method, then:
(§1) The anti-C1 esterase (C1r, C1s) activity was determined according to the method of Okamura et al. [K. Okamura, M. Muramatsu and B. Fujii, Biochem. Biophys. Acta, 295, 252-257 (1973)]. The inhibition of complement mediated hemolysis was determined according to the method of Baker et al. [B. R. Baker and E. H. Erickson, J. Med. Chem., 12, 408-414 (1969)]. The figures in Table 2 have the following meanings:
C1s: Molar concentration of the test compound which inhibits 50% of the ability of C1s to hydrolyse ATEE (acetyltyrosin ethyl ester) (ID50).

The target of another assay is T2, C1r (Homo sapiens, UniProt P00736).
T2 sequence (P00736 464-705 limits assumed): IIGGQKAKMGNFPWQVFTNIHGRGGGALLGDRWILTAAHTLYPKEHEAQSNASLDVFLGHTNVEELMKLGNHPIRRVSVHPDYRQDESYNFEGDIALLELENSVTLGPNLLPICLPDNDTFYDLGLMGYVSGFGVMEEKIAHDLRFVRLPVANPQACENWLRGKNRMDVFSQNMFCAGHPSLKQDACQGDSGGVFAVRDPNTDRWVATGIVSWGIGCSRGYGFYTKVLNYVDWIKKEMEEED
T2 sequence (P00736 18-463 limits assumed): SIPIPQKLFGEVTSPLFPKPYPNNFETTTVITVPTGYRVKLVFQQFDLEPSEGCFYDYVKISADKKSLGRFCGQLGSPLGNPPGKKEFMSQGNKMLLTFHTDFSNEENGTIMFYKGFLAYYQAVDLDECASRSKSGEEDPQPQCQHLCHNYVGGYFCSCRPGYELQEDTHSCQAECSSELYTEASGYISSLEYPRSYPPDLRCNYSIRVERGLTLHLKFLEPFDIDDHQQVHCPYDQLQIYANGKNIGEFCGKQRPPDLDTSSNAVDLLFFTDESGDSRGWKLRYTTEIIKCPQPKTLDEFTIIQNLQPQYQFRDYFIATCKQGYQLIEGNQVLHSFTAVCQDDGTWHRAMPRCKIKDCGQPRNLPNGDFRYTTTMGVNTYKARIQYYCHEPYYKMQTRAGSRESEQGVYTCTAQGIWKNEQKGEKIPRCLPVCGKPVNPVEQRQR
Description: anti-C1 esterase (C1r) activity (hydrolysis of AAME). To be noted: for IC50: AAME hydrolysis, read-out: ID50 C1r; for inhibition at 10 µM: at 1×10^-5 M, figure in parentheses, read-out: percent inhibition C1r. Type of assay: biochemical. The procedure:
as §1
C1r: Molar concentration of the test compound which inhibits 50% of the ability of C1r to hydrolyse AAME (acetylarginin methyl ester) (ID50).

Another assay relates to Kallikrein. Description: anti-kallikrein activity (hydrolysis of TAME). The format is biochemical. Particulars: for IC50: TAME hydrolysis, read-out: ID50 Kallikrein; for percentage inhibition Kallikrein: at 1×10^-5 M, figure in parentheses. The procedure:
(§2) The anti-trypsin, anti-plasmin, anti-kallikrein and anti-thrombin activities were determined according to the method of Muramatsu et al. [M. Muramatsu, T. Onishi, S. Makino, Y. Hayashi and S. Fujii, J. of Biochem., 58, 214 (1965)]. […] The compound No. corresponds to the compound number shown in Examples.

In another assay the target is Plasmin (Homo sapiens, UniProt P00747). The assay is described as follows: anti-plasmin activity (hydrolysis of TAME). The format is biochemical. To be noted: for IC50: TAME hydrolysis, read-out: ID50 Plasmin. The procedure:
as §2

A further assay addresses Thrombin (Homo sapiens, UniProt P00734). The assay is described as follows: biochemical. Particulars: for IC50: read-out: ID50 Thrombin.
The next assay has as its target T3, Trypsin (Bos taurus, UniProt P00760).
T3 sequence (P00760 24-246): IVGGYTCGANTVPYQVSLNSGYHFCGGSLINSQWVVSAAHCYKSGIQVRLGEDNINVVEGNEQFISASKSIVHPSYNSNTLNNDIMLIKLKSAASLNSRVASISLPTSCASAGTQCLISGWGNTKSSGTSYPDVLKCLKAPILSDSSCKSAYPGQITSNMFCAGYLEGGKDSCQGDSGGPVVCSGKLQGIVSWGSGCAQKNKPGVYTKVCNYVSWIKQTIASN
The assay is described as follows: anti-trypsin activity (hydrolysis of TAME). To be noted: read-out: ID50 Trypsin. Type of assay: biochemical. The procedure: as §2

Assay [1] deals with complement mediated hemolysis. The assay is described as follows: inhibition of complement mediated hemolysis. Type of assay: cell-based. The procedure: The complement mediated hemolysis is widely used as a means to determine the titration of complement. The principle of this method is based on the fact that hemolysis is caused by the activation of complement, when the latter is added to a complex (immune complex) of erythrocytes and the antibody thereof. The degree of hemolysis varies in proportion to the amount of complement added. Therefore, when a known amount of complement admixed with a C1 esterase inhibitor is used, the hemolysis must be suppressed in proportion to the inhibitory activity.
as §1
Inhibition of complement mediated hemolysis (%): The inhibitory activity is shown in terms of percent inhibition of the compound at varied concentrations: […]

Read-outs that look alike come from different tables or passages of the source. Some results are limits rather than exact numbers.

Chain of Plasmin (P00747 581-810 limits assumed, species assumed): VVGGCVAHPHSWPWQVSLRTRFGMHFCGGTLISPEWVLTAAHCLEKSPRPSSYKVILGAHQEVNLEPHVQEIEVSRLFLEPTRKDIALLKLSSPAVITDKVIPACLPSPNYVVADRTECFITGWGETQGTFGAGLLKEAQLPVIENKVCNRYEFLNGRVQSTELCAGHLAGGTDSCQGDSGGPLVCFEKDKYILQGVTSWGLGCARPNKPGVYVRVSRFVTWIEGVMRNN
Chain of Plasmin (P00747 97-580 limits assumed, species assumed): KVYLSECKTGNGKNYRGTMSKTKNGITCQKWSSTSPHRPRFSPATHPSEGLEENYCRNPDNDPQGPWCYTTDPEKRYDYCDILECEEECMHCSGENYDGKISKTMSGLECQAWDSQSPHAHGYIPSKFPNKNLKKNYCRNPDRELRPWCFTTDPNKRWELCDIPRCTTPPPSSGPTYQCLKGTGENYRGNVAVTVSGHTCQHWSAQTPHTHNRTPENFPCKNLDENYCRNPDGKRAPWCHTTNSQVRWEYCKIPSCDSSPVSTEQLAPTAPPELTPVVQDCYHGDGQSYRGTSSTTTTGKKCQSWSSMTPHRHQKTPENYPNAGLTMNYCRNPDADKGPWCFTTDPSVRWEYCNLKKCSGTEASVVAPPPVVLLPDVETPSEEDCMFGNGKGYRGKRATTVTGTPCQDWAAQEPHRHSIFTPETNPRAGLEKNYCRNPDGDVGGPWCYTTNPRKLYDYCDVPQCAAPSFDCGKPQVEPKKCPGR

In the case of `N=C(N)c1ccc2cc(OC(=O)c3ccc(COCc4ccccc4)o3)ccc2c1` [compound 7], the IC50 at C1s was 4 µM; on C1r it was 0.3 µM; with Kallikrein it was 2 µM; at Plasmin, 3 µM; at Thrombin (TAME hydrolysis), 0.4 µM; on Trypsin it was 0.5 µM. Also, the “Inhibition of complement mediated hemolysis” value came to 100% in assay [1] (1 × 10^-4), 98% in assay [1] (1 × 10^-5), 96% in assay [1] (1 × 10^-6) and 98% in assay [1] (1 × 10^-7).
Regarding `CC(=O)OCc1ccc(C(=O)Oc2ccc3cc(C(=N)N)ccc3c2)o1` [compound 9], the IC50 turned out to be 4 µM at C1s; 0.3 µM on C1r; 2 µM with Kallikrein; 0.9 µM on Plasmin; 0.3 µM at Thrombin (TAME hydrolysis); 0.5 µM on Trypsin. The “Inhibition of complement mediated hemolysis” value is on record as 100% in assay [1] (1 × 10^-4), 100% in assay [1] (1 × 10^-5), 96% in assay [1] (1 × 10^-6) and 77% in assay [1] (1 × 10^-7).
With `CSCc1ccc(C(=O)Oc2ccc3cc(C(=N)N)ccc3c2)o1` [compound 11], the IC50 on C1s was found to be 0.9 µM; at C1r it was 0.2 µM; in the assay on Kallikrein it was 0.2 µM; at Plasmin it was 0.5 µM; on Thrombin (TAME hydrolysis), 0.3 µM; on Trypsin, 0.2 µM. The “Inhibition of complement mediated hemolysis” value is listed as 100% in assay [1] (1 × 10^-4), 100% in assay [1] (1 × 10^-5), 99% in assay [1] (1 × 10^-6) and 88% in assay [1] (1 × 10^-7).
For the compound `N=C(N)c1ccc2cc(OC(=O)C=Cc3ccco3)ccc2c1` [compound 14], the IC50 at C1s was 0.4 µM; at C1r, 3 µM; with Kallikrein, 5 µM; on Plasmin, 0.3 µM; at Thrombin (TAME hydrolysis) it was 7 µM; at Trypsin, 1 µM. Also, the “Inhibition of complement mediated hemolysis” value in assay [1] (1 × 10^-4) is recorded as 98%; in assay [1] (1 × 10^-5) it was 94%; in assay [1] (1 × 10^-6), 72%; in assay [1] (1 × 10^-7), 20%.
Regarding `N=C(N)c1ccc2cc(OC(=O)c3cc4ccccc4o3)ccc2c1` [compound 16], at C1s, the inhibition (usually how much of the control response was suppressed) at 10 µM was below 10%. Further, the IC50 at C1r was 4 µM; on Plasmin it was 3 µM; at Thrombin (TAME hydrolysis), 7 µM; on Trypsin it was 2 µM. The “percentage inhibition Kallikrein” value with Kallikrein is “NE (the percentage inhibition is less than 10%)”. In addition, the “Inhibition of complement mediated hemolysis” value in assay [1] (1 × 10^-4) is 100%; in assay [1] (1 × 10^-5) it was 99%; in assay [1] (1 × 10^-6), 99%; in assay [1] (1 × 10^-7) it was 98%.
Regarding `COc1ccc2oc(C(=O)Oc3ccc4cc(C(=N)N)ccc4c3)cc2c1` [compound 17], the IC50 at C1s worked out at 6 µM; on C1r, 4 µM; at Plasmin, 3 µM; at Thrombin (TAME hydrolysis), 2 µM; on Trypsin, 3 µM. Moreover, the “percentage inhibition Kallikrein” value in the assay on Kallikrein was “NE (the percentage inhibition is less than 10%)”. Besides, the “Inhibition of complement mediated hemolysis” value in assay [1] (1 × 10^-4) was determined as 100%; in assay [1] (1 × 10^-5) it was 100%; in assay [1] (1 × 10^-6), 95%; in assay [1] (1 × 10^-7), 90%.
In the case of `N=C(N)c1ccc2cc(OC(=O)c3cccs3)ccc2c1` [compound 22], the IC50 at C1s was 0.3 µM; on C1r, 0.07 µM; with Kallikrein, 2 µM; on Plasmin, 0.3 µM; on Thrombin (TAME hydrolysis), 0.2 µM; on Trypsin, 0.2 µM. For the same compound, the “Inhibition of complement mediated hemolysis” value in assay [1] (1 × 10^-4) is 100%; in assay [1] (1 × 10^-5) it was 96%; in assay [1] (1 × 10^-6), 58%; in assay [1] (1 × 10^-7), 34%.
In the case of `Cc1ccc(C(=O)Oc2ccc3cc(C(=N)N)ccc3c2)s1` [compound 23], the IC50 on C1s is 0.4 µM; on C1r it was 0.7 µM; with Kallikrein it was 2 µM; at Plasmin, 0.3 µM; at Thrombin, 3 µM; at Trypsin it was below 0.01 µM. The “Inhibition of complement mediated hemolysis” value in assay [1] (1 × 10^-4) is 100%; in assay [1] (1 × 10^-5), 99%; in assay [1] (1 × 10^-6), 95%; in assay [1] (1 × 10^-7) it was 91%.
Take `N=C(N)c1ccc2cc(OC(=O)c3ccc[nH]3)ccc2c1` [compound 28]: the IC50 was 0.3 µM on C1s and 6 µM at Trypsin. For the same compound, the inhibition at 10 µM at C1r is 31%; at Plasmin (at 1×10^-5 M, figure in parentheses, read-out: percentage inhibition Plasmin), below 10%; at Thrombin (at 1×10^-5 M, figure in parentheses, read-out: percentage inhibition Thrombin), below 10%. Moreover, the “percentage inhibition Kallikrein” value in the assay with Kallikrein is recorded as “NE (the percentage inhibition is less than 10%)”. Moreover, the “Inhibition of complement mediated hemolysis” value is given as 88% in assay [1] (1 × 10^-4), 55% in assay [1] (1 × 10^-5), 28% in assay [1] (1 × 10^-6) and “NE (the percentage inhibition is less than 10%)” in assay [1] (1 × 10^-7).
With `N=C(N)c1ccc2cc(OC(=O)c3ccccn3)ccc2c1` [compound 45], the inhibition at 10 µM amounted to 20% on C1s and 18% on C1r. For the same compound, the “percentage inhibition Kallikrein” value with Kallikrein is on record as “NE (the percentage inhibition is less than 10%)”. Further, the results for the IC50 on Plasmin, at Thrombin (TAME hydrolysis) and at Trypsin were 7 µM, 4 µM and 5 µM, respectively. The “Inhibition of complement mediated hemolysis” value amounted to 100% in assay [1] (1 × 10^-4), 98% in assay [1] (1 × 10^-5), 75% in assay [1] (1 × 10^-6) and 46% in assay [1] (1 × 10^-7).

(Values after patent US4634783A, “Novel amidine compound” (Torii & Co. Ltd., priority 1983, dated 1987).)
